# In US9644213B2, “Method of enhancing plant drought tolerance by expression of NDR1” (BOARD OF TRUSTEES OF MICHIGAN STATE UNIVERSITY, priority 2012, dated 2017):
# Experiments:
# [1] = system: Arabidopsis thaliana Col-0 seeds; assay: Seed germination assay on ABA medium; type: in vivo
# Method: (§1) Arabidopsis thaliana Col-0 and ndr1-1 seeds were surface sterilized with 50% bleach and 0.1% Triton X-100 for 20 min, with shaking, and rinsed five times with sterile distilled water under horizontal laminar flow hood. […] Plates were stratified at 4° C. for 4 days, in the dark, before being transferred to a growth chamber at 20° C., with a 12 h/12 h light/dark cycle and a light intensity of 120 μmol photons m^−2 s^−1.
# (§2) During seed germination and dormancy assays, the radicle emergence was scored as germination and obvious cotyledons formation with green color was recorded as green cotyledons, respectively. The experiment was repeated five times, independently.
# [2] = system: Arabidopsis thaliana ndr1-1 seeds; assay: Seed germination assay on ABA medium; type: in vivo; conditions: ndr1 mutant
# Method: as §1, §2
# [3] = system: ndr1 stomata; assay: ABA-induced stomata closure in epidermal peels; type: cell-based, Arabidopsis thaliana; conditions: 10 μM ABA, 1 h, vs mock
# Method: (§3) Stomata serve an important function in response to water stress, in large part by regulating transpiration rates. As an integral part of water stress, the regulation of stomatal aperture is a mechanism through which ABA-mediated signaling drives the conformational change in the shape of the guard cells, leading to a decrease in aperture size. To determine its putative role in linking ABA and stomata response, the NDR1 function was assayed. Epidermal peels of WT Col-0 and the ndr1 mutant were treated with 10 μM ABA, and after 1 hour, the stomata apertures were measured.
# [4] = system: WT Col-0 stomata; assay: ABA-induced stomata closure in epidermal peels; type: cell-based, Arabidopsis thaliana; conditions: WT Col-0 epidermal peels; 10 μM ABA; 1 h; vs mock
# Method: as §3
smiles,measurement,setting,value
"CC1=CC(=O)CC(C)(C)[C@@]1(O)/C=C/C(C)=C\C(=O)O [ABA, abscisic acid]",germination rate (radicle emergence),[1]; 0.5 μM ABA,65%
same,germination rate (radicle emergence),[1]; 1.0 μM ABA,36%
same,germination rate (radicle emergence),[2]; 0.5 μM ABA,90%
same,germination rate (radicle emergence),[2]; 1.0 μM ABA,65%
same,stomata aperture,[3],did not show a change in aperture
same,stomata aperture,[4],significant reduction in aperture
